For data set [1], the system named is human cultured epidermal model (LabCyte EPI-MODEL12). Conditions: pregabalin 10 mg/mL in 100 mmol/L aqueous solution or dispersion of the ionic liquid, 300 μL donor, 37° C., control in water 252. The method, then: A human cultured epidermal model (LabCyte EPI-MODEL12, Japan Tissue Engineering Co., Ltd.) was used. The phase on the stratum corneum side of the model was defined as a donor phase, whereas the phase on the stratum basal side of the model was defined as a receptor phase. Whether a temperature-responsive ionic liquid enhances the permeation of pregabalin from the donor phase to the receptor phase was examined. The test was carried out in an incubator of 37° C. Pregabalin was dissolved in water, or a 100 mmol/L aqueous solution or water dispersion of a temperature-responsive ionic liquid to a concentration of 10 mg/mL. Each solution (300 μL) was added to the donor phase. Twenty-four hours later, a receptor fluid was sampled and analyzed by LC-MS/MS to obtain the amount of pregabalin permeated. The Hanks' balanced salt solution was used as the receptor fluid.

The nature of data set [2]: Confirmation of temperature responsive property of ionic liquid (lower critical solution temperature by absorbance at 450 nm). The settings on record: absorbance 450 nm, heating 20° C.→95° C. (0.5° C./minute). The class given is physicochemical. The method, then:
(§1) Whether an ionic liquid is a temperature-responsive ionic liquid having a lower critical solution temperature (LCST-type temperature-responsive ionic liquid) is determined by measuring the absorbance of the liquid at a wavelength within a visible light region while gradually increasing the temperature and observing white turbidity, in other words, an abrupt increase in absorbance at a certain temperature caused by an increase in degree of hydrophobicity. The specific procedure is as follows. First, a mixture of an ionic liquid and water is prepared and the layer state at room temperature is observed. Then, the mixture is placed in a refrigerator of 4° C., sufficiently stirred and allowed to stand still for one hour. The state of the mixture is observed. If the layer state of the ionic liquid-water mixture at room temperature is the same as the layer state at 4° C., the mixture is increased in temperature at a rate of 0.5° C./minute within the range of 20° C. to 95° C. and the absorbance of the mixture is measured at 450 nm. Based on a change in absorbance, whether the ionic liquid thus measured is LCST-type temperature-responsive ionic liquid or not can be checked.
The obtained data of absorbance change can be analyzed by differential calculus according to Tm (nucleic acid melting temperature) analysis program to obtain the lower critical solution temperature. In contrast, if the phase state of the ionic liquid-water mixture at room temperature is different from the state at 4° C., the mixture is increased in temperature at a rate of 0.5° C./minute within the range of 5° C. to 40° C. and the absorbance of the mixture is measured at 450 nm. Based on a change in absorbance, whether the ionic liquid thus measured is LCST-type temperature-responsive ionic liquid or not can be checked.
(§2) More specifically, the temperature responsive property was examined by measuring a absorbance at 450 nm at different temperatures in the following measurement conditions to obtain a change in absorbance.
(0.5° C./minute) • Analysis method: calculation by differential calculus using Tm (nucleic acid melting temperature) analysis program
(§3) (0.5° C./minute) • Analysis method: calculation by differential calculus using Tm (nucleic acid melting temperature) analysis program.
as §3

Data set [3] deals with human cultured epidermal model (LabCyte EPI-MODEL12). The settings on record: 37° C. As for the experimental part:
A human cultured epidermal model (LabCyte EPI-MODEL12, Japan Tissue Engineering Co., Ltd.) was used. The phase on the stratum corneum side of the model was defined as a donor phase, whereas the phase on the stratum basal side of the model was defined as a receptor phase. […] The test was carried out in an incubator of 37° C. […] Each solution (300 μL) was added to the donor phase. […] The Hanks' balanced salt solution was used as the receptor fluid.

The conditions of data set [4]: mixture of ionic liquid and water as obtained in the synthesis. As for the experimental part: as §1, §2
For data set [5] the following is noted: cited from earlier work.
[6] abbreviates: V-750, initial waiting 5 minutes.
Setting [7] is: ionic liquid-water sample, UV1650PC, initial waiting 10 minutes.

As to `CCCCCCCCCC(=O)O.C[N+](C)(C)CCO` [Reference Example 3-sample, cholinium decanoate, reference compound], the “24-hour Cumulative permeation amount of pregabalin” value in data set [1] is recorded as 354 μg/cm^2. Further, in data set [2] (setting [6]), the “LCST (lower critical solution temperature)” value was “None”.
`CCCC[P+](CCCC)(CCCC)CCCC.O=S(=O)([O-])c1ccccc1` [Reference Example 2-sample, tetrabutylphosphonium benzenesulfonate]: the “LCST (lower critical solution temperature)” value in data set [2] (setting [7]) is “None”.
Take `CCCC[P+](CCCC)(CCCC)CCCC.O=C([O-])c1ccc(C(F)(F)F)cc1O` [Synthesis Example 1-sample, tetrabutylphosphonium 4-(trifluoromethyl)salicylate]: the “24-hour Cumulative permeation amount of pregabalin” value in data set [1] came to 3030 μg/cm^2. The “LCST (lower critical solution temperature)” value in data set [2] (setting [7]) was 23.6 °C. Moreover, in data set [3] (lidocaine hydrochloride monohydrate 10 mg/mL in 100 mmol/L aqueous solution or dispersion of the ionic liquid, control in water 308), the “24-hour Cumulative permeation amount of lidocaine hydrochloride monohydrate” value is on record as 1100 μg/cm^2. Also, the “24-hour Cumulative permeation amount of tramadol hydrochloride” value in data set [3] (tramadol hydrochloride 10 mg/mL in 100 mmol/L aqueous solution or dispersion of the ionic liquid, control in water 300) turned out to be 2510 μg/cm^2. For the same compound, in data set [4], the “compatibility with water at room temperature” value (“compatibility with water” for short) is listed as “separated from water at room temperature”.
Turning to “diisopropanolammonium decanoate [Reference Example 4-sample]”, the “LCST (lower critical solution temperature)” value in data set [2] (setting [6]) is given as “None”.
As for `CCc1cccc2c3c([nH]c12)C(CC)(CC(=O)O)OCC3` (stereo not drawn) [etodolac], in data set [5], the “solubility of etodolac to water” value is given as 0.11 mg/mL.
For the compound `CCCC[P+](CCCC)(CCCC)CCCC.O=S(=O)([O-])c1ccc(Cl)cc1` [Synthesis Example 12-sample, tetrabutylphosphonium 4-chlorobenzenesulfonate], the “LCST (lower critical solution temperature)” value in data set [2] (setting [7]) was found to be 25.6 °C. In data set [4], the “compatibility with water” value was “separated from water at room temperature”.
As for `C[N+](C)(C)CCO.O=C([O-])c1ccccc1O` [Reference Example 5-sample, cholinium salicylate], the “LCST (lower critical solution temperature)” value in data set [2] (setting [6]) was “None”.
As to `CCCC[P+](CCCC)(CCCC)CCCC.Cc1ccc(S(=O)(=O)[O-])cc1` [Synthesis Example 16-sample, tetrabutylphosphonium p-toluenesulfonate], the “LCST (lower critical solution temperature)” value in data set [2] (setting [7]) turned out to be 54.6 °C. Also, the “compatibility with water” value in data set [4] is listed as “compatible with water at room temperature”.

The values above are taken from US20240058452A1, “PHARMACEUTICAL COMPOSITION CONTAINING TEMPERATURE-RESPONSIVE IONIC LIQUID” (priority 2019, published 2024).
